Experiments:
[1] = molecular target: Serine/threonine-protein kinase PRP4 homolog (Homo sapiens) (UniProt Q13523)
[2] = molecular target: Dual specificity tyrosine-phosphorylation-regulated kinase 1A (Homo sapiens) (UniProt Q13627)
[3] = molecular target: Ephrin type-A receptor 5 (Homo sapiens) (UniProt P54756)
[4] = tested on: Receptor-type tyrosine-protein kinase FLT3 (Homo sapiens), P36888 [UNDEFINED MUTATION]
[5] = molecular target: Ribosomal protein S6 kinase alpha-5 (Homo sapiens) (UniProt O75582)
[6] = tested on: Epidermal growth factor receptor (Homo sapiens), P00533 [G719C]
[7] = molecular target: Ribosomal protein S6 kinase alpha-3 (Homo sapiens) (UniProt P51812)
[8] = molecular target: Receptor-interacting serine/threonine-protein kinase 1 (Homo sapiens) (UniProt Q13546)
[9] = tested on: Phosphatidylinositol 4,5-bisphosphate 3-kinase catalytic subunit alpha isoform (Homo sapiens), P42336 [E545A]
[10] = molecular target: Aurora kinase C (Homo sapiens) (UniProt Q9UQB9)
[11] = molecular target: Insulin-like growth factor 1 receptor (Homo sapiens) (UniProt P08069)
[12] = molecular target: Receptor-interacting serine/threonine-protein kinase 2 (Homo sapiens) (UniProt O43353)
[13] = molecular target: Ribosomal protein S6 kinase alpha-6 (Homo sapiens) (UniProt Q9UK32)
[14] = molecular target: Serine/threonine-protein kinase NIM1 (Homo sapiens) (UniProt Q8IY84)
[15] = tested on: Tyrosine-protein kinase ABL1 (Homo sapiens), P00519 [Y253F]
[16] = molecular target: Alpha-2A adrenergic receptor (Homo sapiens) (UniProt P08913); conditions: Compound concentration 10.0 uM
[17] = molecular target: Casein kinase I isoform delta (Homo sapiens) (UniProt P48730)
[18] = molecular target: Mast/stem cell growth factor receptor Kit (Homo sapiens) (UniProt P10721)
[19] = molecular target: cAMP-dependent protein kinase catalytic subunit alpha (Homo sapiens) (UniProt P17612)
[20] = molecular target: NUAK family SNF1-like kinase 2 (Homo sapiens) (UniProt Q9H093)
[21] = tested on: Mast/stem cell growth factor receptor Kit (Homo sapiens), P10721 [V559D,V654A]
[22] = molecular target: Atypical kinase COQ8B, mitochondrial (Homo sapiens) (UniProt Q96D53)
[23] = molecular target: Calcium-dependent protein kinase 1 (Plasmodium falciparum) (UniProt P62344)
[24] = molecular target: Tyrosine-protein kinase Blk (Homo sapiens) (UniProt P51451)
[25] = tested on: Fibroblast growth factor receptor 3 (Homo sapiens), P22607 [G697C]
[26] = molecular target: Aurora kinase A (Homo sapiens) (UniProt O14965)
[27] = tested on: Mast/stem cell growth factor receptor Kit (Homo sapiens), P10721 [V559D]
[28] = molecular target: Serine/threonine-protein kinase mTOR (Homo sapiens) (UniProt P42345)
[29] = molecular target: MAP kinase-activated protein kinase 2 (Homo sapiens) (UniProt P49137)
[30] = molecular target: Protein-tyrosine kinase 6 (Homo sapiens) (UniProt Q13882)
[31] = tested on: Serine/threonine-protein kinase B-raf (Homo sapiens), P15056 [V600E]
[32] = molecular target: Receptor tyrosine-protein kinase erbB-3 (Homo sapiens) (UniProt P21860)
[33] = tested on: Receptor-type tyrosine-protein kinase FLT3 (Homo sapiens), P36888 [D835H]
[34] = molecular target: Cyclin-dependent kinase-like 2 (Homo sapiens) (UniProt Q92772)
[35] = molecular target: Tyrosine-protein kinase Lyn (Homo sapiens) (UniProt P07948)
[36] = molecular target: Serine/threonine-protein kinase PLK4 (Homo sapiens) (UniProt O00444)
[37] = molecular target: Mitogen-activated protein kinase kinase kinase 1 (Homo sapiens) (UniProt Q13233)
[38] = molecular target: Tyrosine-protein kinase Fes/Fps (Homo sapiens) (UniProt P07332)
[39] = molecular target: Muscarinic acetylcholine receptor M2 (Homo sapiens) (UniProt P08172); conditions: Compound concentration 10.0 uM
[40] = molecular target: Ribosomal protein S6 kinase beta-1 (Homo sapiens) (UniProt P23443)
[41] = tested on: Phosphatidylinositol 4,5-bisphosphate 3-kinase catalytic subunit alpha isoform (Homo sapiens), P42336 [E545K]
[42] = molecular target: Tyrosine-protein kinase FRK (Homo sapiens) (UniProt P42685)
[43] = molecular target: Mitogen-activated protein kinase 8 (Homo sapiens) (UniProt P45983)
[44] = tested on: Tyrosine-protein kinase ABL1 (Homo sapiens), P00519 [F317L]
[45] = Compound concentration 1000.0 nM
[46] = Compound concentration 100.0 nM

Serine/threonine-protein kinase PLK4 (Homo sapiens), sequence (O00444 whole entry): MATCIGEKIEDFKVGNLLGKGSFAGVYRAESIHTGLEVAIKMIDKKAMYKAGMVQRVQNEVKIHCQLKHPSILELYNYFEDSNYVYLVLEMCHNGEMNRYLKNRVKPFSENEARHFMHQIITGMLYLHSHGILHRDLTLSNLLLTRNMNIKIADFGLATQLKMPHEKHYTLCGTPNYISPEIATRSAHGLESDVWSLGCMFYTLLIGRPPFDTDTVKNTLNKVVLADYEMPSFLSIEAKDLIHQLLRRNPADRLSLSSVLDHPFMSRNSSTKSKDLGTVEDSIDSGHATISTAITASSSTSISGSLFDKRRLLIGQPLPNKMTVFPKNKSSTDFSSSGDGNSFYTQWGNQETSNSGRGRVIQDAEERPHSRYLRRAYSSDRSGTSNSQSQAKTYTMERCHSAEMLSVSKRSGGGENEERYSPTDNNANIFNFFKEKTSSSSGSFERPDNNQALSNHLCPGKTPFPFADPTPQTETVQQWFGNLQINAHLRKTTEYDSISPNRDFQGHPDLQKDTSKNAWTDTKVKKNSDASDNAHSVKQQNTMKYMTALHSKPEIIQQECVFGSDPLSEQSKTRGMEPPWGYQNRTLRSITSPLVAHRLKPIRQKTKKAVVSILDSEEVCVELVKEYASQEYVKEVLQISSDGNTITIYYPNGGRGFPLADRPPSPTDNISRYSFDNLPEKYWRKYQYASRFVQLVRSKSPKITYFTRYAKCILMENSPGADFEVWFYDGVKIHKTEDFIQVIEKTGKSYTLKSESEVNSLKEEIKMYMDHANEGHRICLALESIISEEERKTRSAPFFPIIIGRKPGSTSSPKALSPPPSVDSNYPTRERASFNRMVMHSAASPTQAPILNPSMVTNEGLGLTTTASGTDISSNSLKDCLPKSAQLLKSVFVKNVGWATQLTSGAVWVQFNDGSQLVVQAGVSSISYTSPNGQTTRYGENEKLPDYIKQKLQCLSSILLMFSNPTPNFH
Cyclin-dependent kinase-like 2 (Homo sapiens), sequence (Q92772 whole entry): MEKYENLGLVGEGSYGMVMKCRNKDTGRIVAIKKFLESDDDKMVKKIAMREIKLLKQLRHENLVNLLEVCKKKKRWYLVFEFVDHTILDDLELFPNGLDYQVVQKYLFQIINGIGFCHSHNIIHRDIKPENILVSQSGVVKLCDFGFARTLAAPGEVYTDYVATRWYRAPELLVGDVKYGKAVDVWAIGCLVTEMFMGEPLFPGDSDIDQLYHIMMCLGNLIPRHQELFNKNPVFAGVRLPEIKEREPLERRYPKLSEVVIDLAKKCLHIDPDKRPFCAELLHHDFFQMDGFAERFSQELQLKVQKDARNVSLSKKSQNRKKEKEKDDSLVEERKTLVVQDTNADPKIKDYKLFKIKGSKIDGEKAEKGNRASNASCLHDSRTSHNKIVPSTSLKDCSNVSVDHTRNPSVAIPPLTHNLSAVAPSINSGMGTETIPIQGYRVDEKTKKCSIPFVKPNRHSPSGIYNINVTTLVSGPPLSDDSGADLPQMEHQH
Serine/threonine-protein kinase NIM1 (Homo sapiens), sequence (Q8IY84 whole entry): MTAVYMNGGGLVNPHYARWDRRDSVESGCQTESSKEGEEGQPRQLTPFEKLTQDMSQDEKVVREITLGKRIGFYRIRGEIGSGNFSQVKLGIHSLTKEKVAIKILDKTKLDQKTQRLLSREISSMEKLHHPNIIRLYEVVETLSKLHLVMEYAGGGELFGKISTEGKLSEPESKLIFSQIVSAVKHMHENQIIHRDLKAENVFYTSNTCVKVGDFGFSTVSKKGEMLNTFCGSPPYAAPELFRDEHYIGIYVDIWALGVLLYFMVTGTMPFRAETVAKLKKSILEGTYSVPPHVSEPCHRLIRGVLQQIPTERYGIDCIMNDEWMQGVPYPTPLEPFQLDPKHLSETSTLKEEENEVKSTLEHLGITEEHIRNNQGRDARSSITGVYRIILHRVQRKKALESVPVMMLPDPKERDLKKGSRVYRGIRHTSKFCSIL
Mitogen-activated protein kinase 8 (Homo sapiens), sequence (P45983 whole entry): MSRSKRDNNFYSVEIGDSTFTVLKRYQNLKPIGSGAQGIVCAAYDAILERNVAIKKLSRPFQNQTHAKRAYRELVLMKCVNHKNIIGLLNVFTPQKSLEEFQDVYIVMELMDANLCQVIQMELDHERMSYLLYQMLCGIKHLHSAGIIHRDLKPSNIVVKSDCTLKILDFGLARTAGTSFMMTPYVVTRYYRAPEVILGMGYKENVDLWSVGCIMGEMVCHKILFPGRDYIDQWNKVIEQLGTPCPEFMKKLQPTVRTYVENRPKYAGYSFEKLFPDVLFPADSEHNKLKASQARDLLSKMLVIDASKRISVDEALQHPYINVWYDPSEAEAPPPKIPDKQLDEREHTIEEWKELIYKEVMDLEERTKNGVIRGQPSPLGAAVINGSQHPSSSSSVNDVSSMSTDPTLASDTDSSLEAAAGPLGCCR
Muscarinic acetylcholine receptor M2 (Homo sapiens), sequence (P08172 whole entry): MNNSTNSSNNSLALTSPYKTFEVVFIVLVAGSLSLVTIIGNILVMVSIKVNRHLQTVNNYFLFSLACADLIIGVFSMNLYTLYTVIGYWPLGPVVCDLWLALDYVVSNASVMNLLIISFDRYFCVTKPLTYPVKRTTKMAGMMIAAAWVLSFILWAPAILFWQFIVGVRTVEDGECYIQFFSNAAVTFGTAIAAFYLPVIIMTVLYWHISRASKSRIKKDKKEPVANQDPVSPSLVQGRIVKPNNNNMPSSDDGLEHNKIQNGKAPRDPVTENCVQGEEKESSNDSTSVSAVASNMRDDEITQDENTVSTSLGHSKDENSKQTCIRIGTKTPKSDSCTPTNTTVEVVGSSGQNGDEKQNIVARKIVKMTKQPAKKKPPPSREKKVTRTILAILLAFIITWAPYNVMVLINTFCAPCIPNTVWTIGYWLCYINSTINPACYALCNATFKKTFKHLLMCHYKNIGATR
Ribosomal protein S6 kinase alpha-3 (Homo sapiens), sequence (P51812 whole entry): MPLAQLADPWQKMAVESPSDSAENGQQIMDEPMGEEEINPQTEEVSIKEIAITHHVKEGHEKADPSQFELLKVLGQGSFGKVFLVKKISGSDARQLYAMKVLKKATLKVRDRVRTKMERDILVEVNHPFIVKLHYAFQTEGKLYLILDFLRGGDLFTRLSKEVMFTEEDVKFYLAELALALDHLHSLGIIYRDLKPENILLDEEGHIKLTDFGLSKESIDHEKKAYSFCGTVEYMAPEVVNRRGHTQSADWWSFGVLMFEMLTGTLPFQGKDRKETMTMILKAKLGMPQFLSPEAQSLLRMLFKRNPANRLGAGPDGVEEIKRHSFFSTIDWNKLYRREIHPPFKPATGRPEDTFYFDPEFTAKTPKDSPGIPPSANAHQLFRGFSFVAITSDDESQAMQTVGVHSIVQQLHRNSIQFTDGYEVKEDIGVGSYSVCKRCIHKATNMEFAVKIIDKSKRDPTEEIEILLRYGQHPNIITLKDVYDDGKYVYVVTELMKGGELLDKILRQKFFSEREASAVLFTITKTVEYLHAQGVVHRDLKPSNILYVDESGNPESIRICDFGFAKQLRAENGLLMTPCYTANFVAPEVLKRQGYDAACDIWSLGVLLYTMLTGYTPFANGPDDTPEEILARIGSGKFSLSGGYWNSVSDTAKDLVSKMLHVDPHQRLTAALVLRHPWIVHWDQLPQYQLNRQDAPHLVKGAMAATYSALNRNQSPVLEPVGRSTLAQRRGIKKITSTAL
Alpha-2A adrenergic receptor (Homo sapiens), sequence (P08913 whole entry, canonical isoform): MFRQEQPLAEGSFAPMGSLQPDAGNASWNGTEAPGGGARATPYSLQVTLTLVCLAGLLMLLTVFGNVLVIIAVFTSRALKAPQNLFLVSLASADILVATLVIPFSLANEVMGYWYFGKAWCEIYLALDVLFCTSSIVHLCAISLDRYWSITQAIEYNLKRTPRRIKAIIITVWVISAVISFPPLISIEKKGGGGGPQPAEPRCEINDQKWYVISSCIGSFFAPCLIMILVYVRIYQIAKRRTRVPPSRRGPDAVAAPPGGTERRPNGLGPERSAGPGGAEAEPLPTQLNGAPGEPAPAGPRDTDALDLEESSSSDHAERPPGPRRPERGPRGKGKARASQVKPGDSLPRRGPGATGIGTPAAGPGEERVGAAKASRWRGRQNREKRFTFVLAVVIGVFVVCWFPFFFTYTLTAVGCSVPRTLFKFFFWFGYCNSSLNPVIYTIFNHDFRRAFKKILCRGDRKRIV
Mast/stem cell growth factor receptor Kit (Homo sapiens), P10721 [V559D], sequence (P10721 whole entry V559D): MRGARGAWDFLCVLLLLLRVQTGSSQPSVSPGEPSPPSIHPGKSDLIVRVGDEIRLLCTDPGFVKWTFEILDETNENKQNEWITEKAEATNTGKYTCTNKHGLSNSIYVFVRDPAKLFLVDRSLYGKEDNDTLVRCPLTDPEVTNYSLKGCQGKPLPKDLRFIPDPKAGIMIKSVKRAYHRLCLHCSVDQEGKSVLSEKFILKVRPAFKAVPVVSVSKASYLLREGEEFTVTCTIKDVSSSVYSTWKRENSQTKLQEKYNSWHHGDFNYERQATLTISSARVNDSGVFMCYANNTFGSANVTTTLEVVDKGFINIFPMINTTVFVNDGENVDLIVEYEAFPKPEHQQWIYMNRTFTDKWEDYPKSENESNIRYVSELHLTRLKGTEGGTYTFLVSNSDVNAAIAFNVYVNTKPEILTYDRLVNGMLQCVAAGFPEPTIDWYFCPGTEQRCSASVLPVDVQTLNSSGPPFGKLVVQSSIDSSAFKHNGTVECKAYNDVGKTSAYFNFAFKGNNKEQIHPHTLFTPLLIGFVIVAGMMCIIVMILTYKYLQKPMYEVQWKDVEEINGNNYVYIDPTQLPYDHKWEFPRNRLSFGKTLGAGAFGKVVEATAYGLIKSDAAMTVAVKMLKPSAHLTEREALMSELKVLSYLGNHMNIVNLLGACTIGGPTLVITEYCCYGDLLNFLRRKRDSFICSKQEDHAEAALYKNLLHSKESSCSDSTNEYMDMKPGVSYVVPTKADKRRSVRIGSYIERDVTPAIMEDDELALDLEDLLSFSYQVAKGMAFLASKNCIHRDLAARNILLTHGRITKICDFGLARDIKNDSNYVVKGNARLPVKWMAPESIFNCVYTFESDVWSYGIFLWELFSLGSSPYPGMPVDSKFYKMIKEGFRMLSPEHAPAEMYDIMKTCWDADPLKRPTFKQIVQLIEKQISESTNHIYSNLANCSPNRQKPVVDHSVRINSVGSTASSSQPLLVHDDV
Mast/stem cell growth factor receptor Kit (Homo sapiens), sequence (P10721 whole entry): as the sequence (P10721 whole entry V559D) above, with D559V counted along it

C[C@H](NC(=O)Nc1cc2[nH]ncc2c(CO)n1)c1ccccn1 [ERKi-NC]
residual activity [1, 45]: 100%
residual activity [2, 45]: 100%
residual activity [3, 45]: 100%
residual activity [4, 45]: 100%
residual activity [5, 45]: 100%
residual activity [6, 45]: 100%
residual activity [7, 45]: 79.5%
residual activity [8, 45]: 100%
residual activity [9, 45]: 71.9%
residual activity [10, 45]: 100%
residual activity [11, 45]: 100%
residual activity [12, 45]: 77%
residual activity [13, 45]: 82.7%
residual activity [14, 45]: 100%
residual activity [15, 45]: 100%
inhibition [16]: 16.8%
residual activity [17, 45]: 100%
residual activity [18, 45]: 96.9%
residual activity [19, 45]: 87.7%
residual activity [20, 45]: 100%
residual activity [21, 45]: 100%
residual activity [22, 45]: 99.8%
residual activity [23, 45]: 77.4%
residual activity [24, 45]: 100%
residual activity [25, 45]: 100%
residual activity [26, 45]: 100%
residual activity [27, 45]: 100%
residual activity [28, 45]: 93.1%
residual activity [29, 45]: 100%
residual activity [30, 45]: 100%
residual activity [31, 45]: 100%
residual activity [32, 45]: 60.6%
residual activity [33, 45]: 100%
residual activity [34, 45]: 100%
residual activity [35, 45]: 100%
residual activity [36, 45]: 100%
residual activity [37, 45]: 95.1%
residual activity [38, 45]: 100%
inhibition [39]: 14.2%
residual activity [40, 45]: 58.3%
residual activity [41, 45]: 74.9%
residual activity [42, 45]: 100%
residual activity [43, 45]: 63.3%
residual activity [44, 45]: 91.9%

C[C@@H](NC(=O)Nc1cc2[nH]ncc2c(CO)n1)c1ccccc1 [ERKi]
residual activity [1, 46]: 89.7%
residual activity [2, 46]: 49%
residual activity [3, 46]: 87.9%
residual activity [4, 46]: 80.7%
residual activity [5, 46]: 87.8%
residual activity [6, 46]: 95.7%
residual activity [7, 46]: 85.4%
residual activity [8, 46]: 100%
residual activity [9, 46]: 78.4%
residual activity [10, 46]: 100%
residual activity [11, 46]: 97.9%
residual activity [12, 46]: 90.3%
residual activity [13, 46]: 96.8%
residual activity [14, 46]: 100%
residual activity [15, 46]: 76.2%
inhibition [16]: 9.2%
residual activity [17, 46]: 84.7%
residual activity [18, 46]: 92.5%
residual activity [19, 46]: 91.8%
residual activity [20, 46]: 76%
residual activity [21, 46]: 96.6%
residual activity [22, 46]: 86.7%
residual activity [23, 46]: 82.9%
residual activity [24, 46]: 100%
residual activity [25, 46]: 100%
residual activity [26, 46]: 82%
residual activity [27, 46]: 88.3%
residual activity [28, 46]: 71.8%
residual activity [29, 46]: 100%
residual activity [30, 46]: 86.6%
residual activity [31, 46]: 100%
residual activity [32, 46]: 99%
residual activity [33, 46]: 100%
residual activity [34, 46]: 81%
residual activity [35, 46]: 84.5%
residual activity [36, 46]: 71.6%
residual activity [37, 46]: 100%
residual activity [38, 46]: 100%
inhibition [39]: -3.22%
residual activity [40, 46]: 90%
residual activity [41, 46]: 80.5%
residual activity [42, 46]: 82.2%
residual activity [43, 46]: 93.7%
residual activity [44, 46]: 82.1%

From ChEMBL document CHEMBL4507286 (2021)
